Reference: ChEMBL document CHEMBL5576124, “Discovery of an Exceptionally Orally Bioavailable and Potent HPK1 PROTAC with Enhancement of Antitumor Efficacy of Anti-PD-L1 Therapy” (J Med Chem, 2024)
Active and inactive are the calls of the source. The calls are words filed in the database; no cut-off is given here.

Assays:
[1] = target: T1, Protein cereblon/Mitogen-activated protein kinase kinase kinase kinase 1 (Homo sapiens, UniProt Q92918+Q96SW2); assay: PROTAC activity at CRBN/HPK1 in human Jurkat cells assessed as degradation of HPK1 protein incubated for 24 hrs by Western blotting analysis; type: cell-based
Target sequence in this assay (Q92918 whole entry): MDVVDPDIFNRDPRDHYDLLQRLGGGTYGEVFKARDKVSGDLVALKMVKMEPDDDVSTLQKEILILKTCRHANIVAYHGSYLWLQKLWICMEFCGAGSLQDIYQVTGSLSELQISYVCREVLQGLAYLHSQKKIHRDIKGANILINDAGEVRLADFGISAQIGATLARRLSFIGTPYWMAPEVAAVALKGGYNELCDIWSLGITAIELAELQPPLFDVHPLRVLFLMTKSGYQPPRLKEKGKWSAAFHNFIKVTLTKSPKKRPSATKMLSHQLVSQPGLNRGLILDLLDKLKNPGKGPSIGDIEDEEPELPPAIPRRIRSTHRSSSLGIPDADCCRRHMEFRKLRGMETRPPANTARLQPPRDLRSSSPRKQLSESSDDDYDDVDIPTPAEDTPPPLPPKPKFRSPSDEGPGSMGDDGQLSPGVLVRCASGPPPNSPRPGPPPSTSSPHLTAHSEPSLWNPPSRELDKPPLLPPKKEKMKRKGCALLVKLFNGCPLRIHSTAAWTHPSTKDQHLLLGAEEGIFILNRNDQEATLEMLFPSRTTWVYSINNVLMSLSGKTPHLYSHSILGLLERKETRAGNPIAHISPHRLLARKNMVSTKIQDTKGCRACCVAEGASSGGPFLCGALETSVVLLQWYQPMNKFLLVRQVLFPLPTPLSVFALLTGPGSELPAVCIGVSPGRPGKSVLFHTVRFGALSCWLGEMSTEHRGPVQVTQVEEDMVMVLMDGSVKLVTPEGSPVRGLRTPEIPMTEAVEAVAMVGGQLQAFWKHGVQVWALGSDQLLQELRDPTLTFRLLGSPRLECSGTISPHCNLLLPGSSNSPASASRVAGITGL
Target sequence in this assay (Q96SW2 whole entry): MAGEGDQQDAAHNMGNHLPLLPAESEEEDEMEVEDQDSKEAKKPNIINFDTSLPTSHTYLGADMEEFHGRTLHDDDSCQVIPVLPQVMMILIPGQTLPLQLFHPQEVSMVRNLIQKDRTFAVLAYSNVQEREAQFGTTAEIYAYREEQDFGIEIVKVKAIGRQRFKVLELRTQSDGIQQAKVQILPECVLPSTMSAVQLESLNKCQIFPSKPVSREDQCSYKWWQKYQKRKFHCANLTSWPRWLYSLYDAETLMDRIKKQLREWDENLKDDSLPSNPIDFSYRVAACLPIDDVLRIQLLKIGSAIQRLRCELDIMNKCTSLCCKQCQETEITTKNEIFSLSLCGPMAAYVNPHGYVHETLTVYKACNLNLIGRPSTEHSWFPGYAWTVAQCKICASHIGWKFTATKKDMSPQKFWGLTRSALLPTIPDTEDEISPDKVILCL

[2] = Metabolic stability in human liver microsomes assessed as microsomal intrinsic clearance; type: ADME, Microsome; conditions: read-out: CLH
[3] = AUC (0 to t) in Sprague-Dawley rat at 10 mg/kg,po measured upto 24 hrs by LC-MS analysis; type: ADME, organism-based; conditions: in vivo
[4] = Tmax in ICR mouse at 1 mg/kg,iv measured upto 24 hrs by LC-MS analysis; type: ADME, organism-based; conditions: in vivo
[5] = Metabolic stability in human liver microsomes assessed as hepatic extraction ratio; type: ADME, Microsome; conditions: read-out: ERH
[6] = Stability in human liver microsomes assessed as parent compound remaining measured after 5 mins; type: ADME, Microsome; conditions: read-out: Stability
[7] = target: T1, Protein cereblon/Mitogen-activated protein kinase kinase kinase kinase 1; assay: PROTAC activity at CRBN/HPK1 in human Jurkat cells assessed as downregulation of KHS expression by Western blotting analysis; type: cell-based
Target sequence in this assay (Q92918 whole entry, looked up): as the sequence (Q92918 whole entry) above
Target sequence in this assay (Q96SW2 whole entry, looked up): as the sequence (Q96SW2 whole entry) above

[8] = target: T1, Protein cereblon/Mitogen-activated protein kinase kinase kinase kinase 1; assay: (§1) PROTAC activity at CRBN/HPK1 in human Jurkat cells assessed as degradation of HPK1 protein at 1 uM preincubated with MG132 followed by compound addition incubated for 24 hrs by Western blotting analysis; type: cell-based
Target sequence in this assay (Q92918 whole entry, looked up): as the sequence (Q92918 whole entry) above
Target sequence in this assay (Q96SW2 whole entry, looked up): as the sequence (Q96SW2 whole entry) above

[9] = Stability in human liver microsomes assessed as parent compound remaining measured after 60 mins; type: ADME, Microsome; conditions: read-out: Stability
[10] = AUC (0 to t) in ICR mouse at 10 mg/kg,po measured upto 24 hrs by LC-MS analysis; type: ADME, organism-based; conditions: in vivo
[11] = Metabolic stability in mouse liver microsomes assessed as half life; type: ADME, Microsome
[12] = Half life in ICR mouse at 1 mg/kg,iv measured upto 24 hrs by LC-MS analysis; type: ADME, organism-based; conditions: in vivo
[13] = Half life in ICR mouse at 10 mg/kg,po measured upto 24 hrs by LC-MS analysis; type: ADME, organism-based; conditions: in vivo
[14] = system: Jurkat; assay: Immunostimulatory activity in anti-CD3/CD28 induced human Jurkat cells assessed as increase in IFN-gamma release incubated for 24 hrs by ELISA; type: functional, cell-based
[15] = Stability in mouse liver microsomes assessed as parent compound remaining measured after 30 mins; type: ADME, Microsome; conditions: read-out: Stability
[16] = target: T2, Mitogen-activated protein kinase kinase kinase kinase 3 (Homo sapiens, UniProt Q8IVH8); assay: Inhibition of GLK (unknown origin)
T2 sequence (Q8IVH8 whole entry): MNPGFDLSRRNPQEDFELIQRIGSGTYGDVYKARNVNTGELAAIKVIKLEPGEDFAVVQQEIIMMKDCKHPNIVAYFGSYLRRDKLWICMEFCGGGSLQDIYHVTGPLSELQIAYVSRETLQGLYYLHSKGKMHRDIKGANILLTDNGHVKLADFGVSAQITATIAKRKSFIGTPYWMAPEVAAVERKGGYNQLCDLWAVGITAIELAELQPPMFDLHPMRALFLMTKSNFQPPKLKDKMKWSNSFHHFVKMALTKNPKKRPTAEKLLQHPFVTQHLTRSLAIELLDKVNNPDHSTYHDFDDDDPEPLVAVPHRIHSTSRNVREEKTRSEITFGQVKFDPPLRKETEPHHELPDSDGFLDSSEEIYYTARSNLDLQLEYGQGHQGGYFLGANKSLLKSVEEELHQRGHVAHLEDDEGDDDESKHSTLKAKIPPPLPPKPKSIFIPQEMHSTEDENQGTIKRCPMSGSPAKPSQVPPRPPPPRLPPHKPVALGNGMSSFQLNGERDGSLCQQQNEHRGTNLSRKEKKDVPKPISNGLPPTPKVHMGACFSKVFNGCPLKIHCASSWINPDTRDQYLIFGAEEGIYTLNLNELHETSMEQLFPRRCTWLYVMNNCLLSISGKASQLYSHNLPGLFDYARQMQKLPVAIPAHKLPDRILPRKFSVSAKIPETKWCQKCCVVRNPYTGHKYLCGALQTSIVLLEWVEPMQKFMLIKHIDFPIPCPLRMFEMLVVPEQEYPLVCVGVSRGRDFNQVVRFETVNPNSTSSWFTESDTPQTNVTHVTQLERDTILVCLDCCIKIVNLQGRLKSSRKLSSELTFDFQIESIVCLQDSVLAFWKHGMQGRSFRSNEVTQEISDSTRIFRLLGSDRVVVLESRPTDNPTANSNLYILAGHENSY

[17] = system: Jurkat; assay: Immunostimulatory activity in anti-CD3/CD28 induced human Jurkat cells assessed as upregulation of ERK phosphorylation by Western blotting analysis; type: functional, cell-based
[18] = system: Jurkat; assay: Immunostimulatory activity in anti-CD3/CD28 induced human Jurkat cells assessed as downregulation of NF-kappaB phosphorylation by Western blotting analysis; type: functional, cell-based
[19] = Stability in mouse liver microsomes assessed as parent compound remaining measured after 60 mins; type: ADME, Microsome; conditions: read-out: Stability
[20] = target: T1, Protein cereblon/Mitogen-activated protein kinase kinase kinase kinase 1; assay: as §1, with “4-(2-(2,5-Dimethyl-1,2,3,4-tetrahydroisoquinolin-7-y1)-5H-pyrrolo[2,3-bipyrazin-7-y1)-N,N,2-trimethylbenzamide” for “MG132”; type: cell-based
Target sequence in this assay (Q92918 whole entry, looked up): as the sequence (Q92918 whole entry) above
Target sequence in this assay (Q96SW2 whole entry, looked up): as the sequence (Q96SW2 whole entry) above

[21] = Stability in human liver microsomes assessed as parent compound remaining; type: ADME, Microsome
[22] = Tmax in Sprague-Dawley rat at 10 mg/kg,po measured upto 24 hrs by LC-MS analysis; type: ADME, organism-based; conditions: in vivo
[23] = target: T1, Protein cereblon/Mitogen-activated protein kinase kinase kinase kinase 1; assay: PROTAC activity at CRBN/HPK1 in human Jurkat cells assessed as degradation of HPK1 protein at 1 uM preincubated with cycloheximide followed by compound addition incubated for 4 hrs by Western blotting analysis; type: cell-based
Target sequence in this assay (Q92918 whole entry, looked up): as the sequence (Q92918 whole entry) above
Target sequence in this assay (Q96SW2 whole entry, looked up): as the sequence (Q96SW2 whole entry) above

## Cc1cc(-c2c[nH]c3ncc(-c4ccc(C5CCN(C6CN(c7ccc8c(c7)C(=O)N(C7CCC(=O)NC7=O)C8=O)C6)CC5)cc4)nc23)ccc1C(=O)N(C)C (stereo not drawn)
[1]
  DC50: 4.5 nM
[2]
  CLint scaled: 5.54 mL/min/kg
[3]
  AUC(0-t) at 24 h: 16400 ng·h/mL
[4]
  Tmax: 4.8 min
[5]
  hepatic extraction ratio: 0.058
[6]
  remaining at 5 min: 96.5%
[7]
  Activity: Active
[8]
  Activity: inactive
[9]
  remaining at 1 h: 94.5%
[10]
  AUC(0-t) at 24 h: 137000 ng·h/mL
[11]
  half-life: 1.25 h
[12]
  half-life: 3.13 h
[13]
  half-life: 4.33 h
[14]
  Activity: Dose-Dependent Effect
[15]
  remaining at 0.5 h: 70.3%
[16]
  IC50: > 500 nM
[17]
  Activity: Active
[18]
  Activity: Active
[19]
  remaining at 1 h: 59.4%
[20]
  Activity: Active
[21]
  Stability: 100%
[22]
  Tmax: 1 h
[23]
  Activity: Active
